In patent publication US10253002B2, “Compounds and methods of treating infections” (Neoculi Pty Ltd., priority 2013, dated 2019):
Converted amounts (≈) assume the structure as drawn. “And” between values parts separate entries of the source, which are not always exact repeats. Equal values may be shown once. Read-outs that look alike come from different tables or passages of the source.

Assays:
Escherichia coli = assay: Broth microdilution MIC, Example 7 (NCL812 and analogues); format: cell-based
Pseudomonas aeruginosa = assay: as above; format: cell-based; settings: for MIC: Pseudomonas aeruginosa
S. pneumoniae isolates = assay: Micro-broth dilution MIC, Example 5; format: cell-based, Streptococcus pneumoniae
Description: For all in vitro assays, fresh pneumococcal isolates were grown overnight (O/N) on horse blood agar (HBA) plates (39 g/L Columbia blood agar base [Oxoid] 5% [v/v] defribinated horse blood [Oxoid] at 37° C. with 5% supplemented CO2). Mueller-Hinton blood agar with 5% defibrinated sheep blood (MHSBA Roseworthy Media and Blood Service) was used for disk diffusion analysis as directed by Clinical Laboratory Standards Institute (CLSI) standards. Pneumococci were routinely grown in broth consisting of 4% lysed horse blood (LHB) with Cation Adjusted Mueller Hinton Broth (CAHMB, [Difco]) at 37° C. with 5% supplemented CO2. […] Isolates were stored in HSB at −80° C.
[Micro-broth dilutions and 96 well trays are prepared by the following method: 90 μL of 4% LHB:CAMHB is aliquotted into all wells using a multichannel pipette. 90 μL of working antimicrobial stocks were no serial diluted down the tray by a 1:2 dilution. Negative broth controls and dilution control were taken into account when planning the set up of a 96 well tray.] 10 μL of bacterial suspension was then added to the appropriate wells in the 96 well tray. Appropriate positive (no antimicrobial), negative (no antimicrobial or bacteria) and negative dilution (a serial dilution control of antimicrobial and broth) controls were included in each assay. […] The MBC was determined by a 99.95% inhibition of S. pneumoniae, taking into account the dilution factor. MICs and MBCs were determined in quadruplicate and the mode was taken as the representative value. The MIC50, MIC90 and MIC range and MBC50, MBC90 and MBC range were determined according to CLSI standards. The MIC50 and MIC90, or MBC50 and MBC90, are defined by the lowest concentrations which, when all the MICs and MBCs of the isolates are arranged from lowest to highest, inhibited the 50th and 90th percentile of the total amount of isolates, respectively.

[1] = tested on: Staphylococcus aureus T3-129 / Staphylococcus spp. MK1; assay: Synergy studies, checkerboard method (FIC index); format: cell-based
[2] = Escherichia coli, read-out: MIC (μg/ml) at 24 hours, E. coli, 24 hours, 1st and 2nd replicate rows
[3] = 24 h, read-out: MIC (μg/ml) at 24 hours, P. aeruginosa, 24 hours, 1st and 2nd replicate rows
[4] = P. aeruginosa, 1st, read-out: MIC
[5] = P. aeruginosa, 2nd, read-out: MIC
[6] = 24 hours, 1st and 2nd replicate rows

## CC1(C)S[C@@H]2[C@H](NC(=O)[C@H](N)c3ccccc3)C(=O)N2[C@H]1C(=O)O [Ampicillin]
Escherichia coli; E. coli, 2nd
  MIC: 4 µg/mL (≈ 11.4 µM)
Escherichia coli; [2]
  MIC: 4 µg/mL (≈ 11.4 µM)
Escherichia coli; Escherichia coli, E. coli, 1st, read-out: MIC
  MIC: 4 µg/mL (≈ 11.4 µM)
Pseudomonas aeruginosa; [3]
  MIC: > 128 µg/mL
Pseudomonas aeruginosa; [4]
  MIC: > 128 µg/mL
Pseudomonas aeruginosa; [5]
  MIC: > 128 µg/mL
S. pneumoniae isolates; Streptococcus pneumoniae, D39, 4% LHB:CAMHB, read-out: Relative MIC with media type for D39
  MIC: 0.023 µg/mL (≈ 0.0658 µM)
S. pneumoniae isolates; Streptococcus pneumoniae, D39, 10% horse serum-supplemented broth, read-out: Relative MIC with media type for D39
  MIC: 0.09 µg/mL (≈ 0.258 µM)
S. pneumoniae isolates; Streptococcus pneumoniae, isolate A66.1, Table 22, CAMHB diluent for NCL062, read-out: MIC
  MIC: 0.045 µg/mL (≈ 0.129 µM)
S. pneumoniae isolates; Streptococcus pneumoniae, isolate D39, Table 22, CAMHB diluent for NCL062, read-out: MIC
  MIC: 0.0225 µg/mL (≈ 0.0644 µM)
S. pneumoniae isolates; Streptococcus pneumoniae, isolate P21, Table 22, CAMHB diluent for NCL062, read-out: MIC
  MIC: 0.0225 µg/mL (≈ 0.0644 µM)
S. pneumoniae isolates; Streptococcus pneumoniae, isolate WCH57, Table 22, CAMHB diluent for NCL062, read-out: MIC
  MIC: 0.09 µg/mL (≈ 0.258 µM)
S. pneumoniae isolates; Streptococcus pneumoniae, isolate WCH158, Table 22, CAMHB diluent for NCL062, read-out: MIC
  MIC: 0.0225 µg/mL (≈ 0.0644 µM)
S. pneumoniae isolates; Streptococcus pneumoniae, isolate WU-2, Table 22, CAMHB diluent for NCL062, read-out: MIC
  MIC: 0.0225 µg/mL (≈ 0.0644 µM)
S. pneumoniae isolates; Streptococcus pneumoniae, pneumococcal isolate A66.1, read-out: MIC
  MIC: 0.045 µg/mL (≈ 0.129 µM)
S. pneumoniae isolates; Streptococcus pneumoniae, pneumococcal isolate D39, read-out: MIC
  MIC: 0.023 µg/mL (≈ 0.0658 µM)
S. pneumoniae isolates; Streptococcus pneumoniae, pneumococcal isolate EF3030, read-out: MIC
  MIC: 0.023 µg/mL (≈ 0.0658 µM)
S. pneumoniae isolates; Streptococcus pneumoniae, pneumococcal isolate L82016, read-out: MIC
  MIC: 0.023 µg/mL (≈ 0.0658 µM)
S. pneumoniae isolates; Streptococcus pneumoniae, pneumococcal isolate P9, read-out: MIC
  MIC: 0.023 µg/mL (≈ 0.0658 µM)
S. pneumoniae isolates; Streptococcus pneumoniae, pneumococcal isolate P21, read-out: MIC
  MIC: 0.023 µg/mL (≈ 0.0658 µM)
S. pneumoniae isolates; Streptococcus pneumoniae, pneumococcal isolate TIGR4, read-out: MIC
  MIC: 0.023 µg/mL (≈ 0.0658 µM)
S. pneumoniae isolates; Streptococcus pneumoniae, pneumococcal isolate WCH16, read-out: MIC
  MIC: 0.023 µg/mL (≈ 0.0658 µM)
S. pneumoniae isolates; Streptococcus pneumoniae, pneumococcal isolate WCH43, read-out: MIC
  MIC: 0.023 µg/mL (≈ 0.0658 µM)
S. pneumoniae isolates; Streptococcus pneumoniae, pneumococcal isolate WCH46, read-out: MIC
  MIC: 0.023 µg/mL (≈ 0.0658 µM)
S. pneumoniae isolates; Streptococcus pneumoniae, pneumococcal isolate WCH57, read-out: MIC
  MIC: 0.023 µg/mL (≈ 0.0658 µM)
S. pneumoniae isolates; Streptococcus pneumoniae, pneumococcal isolate WCH77, read-out: MIC
  MIC: 0.023 µg/mL (≈ 0.0658 µM)
S. pneumoniae isolates; Streptococcus pneumoniae, pneumococcal isolate WCH86, read-out: MIC
  MIC: 0.023 µg/mL (≈ 0.0658 µM)
S. pneumoniae isolates; Streptococcus pneumoniae, pneumococcal isolate WCH89, read-out: MIC
  MIC: 0.023 µg/mL (≈ 0.0658 µM)
S. pneumoniae isolates; Streptococcus pneumoniae, pneumococcal isolate WCH92, read-out: MIC
  MIC: 0.09 µg/mL (≈ 0.258 µM)
S. pneumoniae isolates; Streptococcus pneumoniae, pneumococcal isolate WCH137, read-out: MIC
  MIC: 0.023 µg/mL (≈ 0.0658 µM)
S. pneumoniae isolates; Streptococcus pneumoniae, pneumococcal isolate WCH158, read-out: MIC
  MIC: 0.023 µg/mL (≈ 0.0658 µM)
S. pneumoniae isolates; Streptococcus pneumoniae, pneumococcal isolate WCH184, read-out: MIC
  MIC: 0.045 µg/mL (≈ 0.129 µM)
S. pneumoniae isolates; Streptococcus pneumoniae, pneumococcal isolate WCH211, read-out: MIC
  MIC: 0.023 µg/mL (≈ 0.0658 µM)
S. pneumoniae isolates; Streptococcus pneumoniae, pneumococcal isolate WU2, read-out: MIC
  MIC: 0.023 µg/mL (≈ 0.0658 µM)
S. pneumoniae isolates; Streptococcus pneumoniae, all S. pneumoniae isolates, read-out: MIC50
  MIC50: 0.023 µg/mL (≈ 0.0658 µM)
S. pneumoniae isolates; Streptococcus pneumoniae, all S. pneumoniae isolates, read-out: MIC90
  MIC90: 0.023 µg/mL (≈ 0.0658 µM)
S. pneumoniae isolates; all S. pneumoniae isolates
  MIC range: 0.011 to 0.09 µg/mL
[1]; S. aureus strain T3-29, FIC index of antibiotic with NCL812
  FICI: 0.75 and 0.53
[1]; S. aureus strain T3-29, MIC of antibiotic in combination with NCL812/MIC of antibiotic alone
  FIC1: 0.5
[1]; S. aureus strain T3-29, antibiotic with NCL812
  Result (interaction with NCL812): NE (No effect (NE) was defined as 0.5<FICI<4)

## N=C(N/N=C/c1ccc(Cl)cc1)N/N=C/c1ccc(Cl)cc1 [NCL812, 1,3-bis[(E)-(4-chlorophenyl)methyleneamino]guanidine]
Escherichia coli; [6]
  MIC (μg/ml) at 24 hours, E. coli: >128 µg/mL
Escherichia coli; E. coli, 1st
  MIC: >128 µg/mL
Escherichia coli; E. coli, 2nd
  MIC: >128 µg/mL
Escherichia coli; [2]
  MIC: > 128 µg/mL
Escherichia coli; Escherichia coli, read-out: MIC
  MIC: > 128 µg/mL
Pseudomonas aeruginosa; [6]
  MIC (μg/ml) at 24 hours, P. aeruginosa: >128 µg/mL
Pseudomonas aeruginosa; [3]
  MIC: > 128 µg/mL
Pseudomonas aeruginosa; [4]
  MIC: > 128 µg/mL
Pseudomonas aeruginosa; [5]
  MIC: > 128 µg/mL
Pseudomonas aeruginosa; read-out: MIC
  MIC: > 128 µg/mL
S. pneumoniae isolates; Streptococcus pneumoniae, read-out: Relative MIC with media type for D39, D39, 10% horse serum-supplemented broth
  MIC: 32 µg/mL (≈ 95.7 µM)
[1]; MIC of NCL812 in combination with Chloramphenicol/MIC of NCL812 alone, S. aureus strain T3-29
  FIC2: 0.25 and 0.5
[1]; MIC of NCL812 in combination with Erythromycin/MIC of NCL812 alone, S. aureus strain T3-29
  FIC2: 0.5 and 0.25
[1]; MIC of NCL812 in combination with Penicillin G/MIC of NCL812 alone, Staphylococcus spp. Strain MK1
  FIC2: 0.5
[1]; MIC of NCL812 in combination with Sulfamethoxazole/MIC of NCL812 alone, Staphylococcus spp. Strain MK1
  FIC2: 0.25 and 0.5
[1]; Staphylococcus spp. Strain MK1, NCL812 alone
  NCL812 MIC Alone: 2 µg/mL
[1]; with Erythromycin, S. aureus strain T3-29
  NCL812 MIC With Antibiotic: 2 µg/mL
[1]; with Penicillin G, Staphylococcus spp. Strain MK1
  NCL812 MIC With Antibiotic: 2 µg/mL
[1]; with Sulfamethoxazole, Staphylococcus spp. Strain MK1
  NCL812 MIC With Antibiotic: 1 µg/mL and 2 µg/mL
